# Measured values taken from patent US7732437B2, “Use of anti-histaminics for acute reduction of elevated intracranial pressure” (Janssen Pharmaceutica, NV., priority 2001, dated 2010).
# Where two headings read alike, the source gives them in different places. Marks after values point to notes of the source that are not given here.
# What was measured:
# [1] = system: Sprague-Dawley rats with closed head injury; test: Closed Head Injury (CHI) model, severe head injury; conditions: for Decision (sequential statistical evaluation) / Delta %: average change of the relative ICP from baseline over the treatment period: bolus of 1 mg/kg in 1 min, then infusion of 0.5 mg/kg/min for 44 min; for Effect on ICP: 0.5 mg/kg/min for 10 min, first 15 minutes, 6 rats
# Text: (§1) A clinically relevant rat model for traumatic brain injury was used to test the compounds according to the invention and the commercially available compounds. […] Trauma was induced in intubated, isoflurane anesthetized (1.5% isoflurane in a mixture of 30% O2 and 70% N2O) Sprague-Dawley rats (380-400 g) stereotaxically positioned on a table mounted on 4 springs. A 400 g steel cylinder, protected with a 9 mm diameter silicon disc, was dropped on the unprotected skull from a height of either 70 cm or 50 cm (respectively ‘severe’ and ‘moderate’ head injury). The impact area was centered between bregma and lamda. ICP was recorded using a Codman microsensor probe inserted in the parietal cortex. […] The severe head injury mode was used for the evaluation of pharmacological effects immediately after trauma (screening procedure). […] In pharmacological studies, animals with a pathological ICP between 12.5 and 35 mm Hg were included. The changes in ICP, mean arterial blood pressure (MABP) and cerebral perfusion pressure CPP (=MABP—CPP) were expressed as percentage of the initial value at onset of the treatment.
# (§2) On a weekly base, 4 treated groups of 3 rats were compared with 3 saline treated animals. Since conventional statistical methods require a larger amount of animals, a sequential procedure was used. Sequential methods operate in different stages. At each stage, a group of animals was selected as homogeneous as possible. Animals were randomly allocated to either drugs or saline. […] Given the biological relevant level of activity that must be detected, the expected fraction of false positive and negative results was known and fixed. A sequential two-sample grouped rank test was used.
# (§3) Treatment was started at 20 min after severe head injury and involved administering a dose of 0.5 mg/kg/min during 10 minutes, followed by 0.1 mg/kg/min during 50 min.
# (§4) Ranitidine was infused for 6 min at a dose of 2 mg/kg/min in the rat CHI-model after inflicting severe head injury. Solvent (NaCl+H2T) was given at the same rate. In each group, 6 rats were treated. […] The percentage of reduction are calculated as % change of the ICP recorded at the onset of the treatment and at the end of the infusion.
# (§5) A number of commercially available H1- and H2-antagonists was infused for 10 min at a dose of 0.5 mg/kg/min in the rat CHI-model after inflicting severe head injury. Solvent (NaCl+H2T) was given at the same rate. In each group, 6 rats were treated.
# [2] = system: Sprague-Dawley rats with closed head injury; test: Closed Head Injury (CHI) model, moderate head injury, treatment 24 h after trauma; assay type: in vivo, rat; conditions: for effect on saturation of brain haemoglobin with oxygen HbSat (NIRS) / effect on the redox state of CytOx (NIRS) / effect on total brain haemoglobin concentration [HbTot] (NIRS): i.v. 0.5 mg/kg.min 10 min, then 0.1 mg/kg.min 45 min, 24 h after moderate head injury
# Text: The impact area was centered between bregma and lamda.
# Near-infrared spectroscopy (NIRS) of the rat brain ‘in vivo’ allows to quantify non-invasively saturation of brain haemoglobin with oxygen (HbSat) and total brain haemoglobin concentration ([HbTot]). The latter is a measure for cerebral blood volume (CBV). Changes in the redox state of the mitochondrial enzyme cytochrome oxidase (CytOx), an indicator for tissue oxygenation, can also be monitored.
# HbSat is not affected by compound 1 and the racemate (Comp. 1 and Comp. 2).
# The effects of treatment with Compound 2 (i.v. infusion at a dose of 0.1 mg/kg.min during 30 min) at 24 h after moderate trauma were studied using different anesthetics (isoflurane, chloralhydrate, pentobarbital). When chloralhydrate (400 mg/kg i.p) is used as anesthetic, ICP decreases to 75% of initial value and MABP gradually increases to 110% of initial value (medians, n=6). […] Barbiturates also reduce the ICP and an important additional effect can be obtained with the compound.
# non-traumatised rats = test: ICP and blood pressure in non-traumatized rats; assay type: in vivo, rat; conditions: for effect on ICP, MABP and CPP in non-traumatised rats: i.v. 0.5 mg/kg/min 10 minutes, then 0.1 mg/kg/min 50 min, anaesthetised; for effects of H2-agonists (ICP, blood pressure): dimaprit 0.5 mg/kg/min for 10 minutes, impromidine increasing doses up to 3.75 mg/kg/hour; for effects of H2-agonists on blood pressure and ICP, high dose: dimaprit 2 mg/kg/min for 10 minutes, impromidine bolus of 0.5 mg/kg
# Method: For comparison, two commercially available H2-agonists (dimaprit and impromidine) were also tested by infusion into non-traumatized rats, using a dose of 0.5 mg/kg/min for 10 minutes for dimaprit and increasing doses up to 3.75 mg/kg/hour for impromidine.
# Rats The effect of Compound 2, Compound 1 and Racemate (comp. 1 and comp. 2) on ICP, MABP and CPP was tested in anaesthetised non-traumatised rats. […] Conclusion
# [3] = target: T1, human histamine H1-receptor (Homo sapiens, UniProt P35367); test: Radioligand binding, histamine H1-receptor, competitive inhibition of [3H]Pyrilamine; conditions: CHO-cells transfected with the human histamine H1-receptor, read-out: H1-antagonist activity (pIC50) (converted)
# T1 construct: expressed in transfected cells; host or cells: CHO cells
# T1 sequence (P35367 whole entry): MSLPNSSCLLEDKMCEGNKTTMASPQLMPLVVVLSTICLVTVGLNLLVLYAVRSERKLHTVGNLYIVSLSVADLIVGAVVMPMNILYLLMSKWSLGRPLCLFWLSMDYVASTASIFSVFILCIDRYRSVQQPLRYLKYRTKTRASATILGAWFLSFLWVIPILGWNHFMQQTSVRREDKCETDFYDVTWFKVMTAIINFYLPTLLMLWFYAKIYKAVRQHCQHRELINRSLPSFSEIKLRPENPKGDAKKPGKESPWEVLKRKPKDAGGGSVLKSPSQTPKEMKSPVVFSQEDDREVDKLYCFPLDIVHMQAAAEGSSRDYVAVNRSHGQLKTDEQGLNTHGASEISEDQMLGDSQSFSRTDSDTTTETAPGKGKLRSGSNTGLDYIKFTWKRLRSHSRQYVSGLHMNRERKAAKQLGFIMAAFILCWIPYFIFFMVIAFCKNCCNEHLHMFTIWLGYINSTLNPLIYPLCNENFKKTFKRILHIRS
# Method: Competitive inhibition of [^3H] […] Incubation was done during 150 min at 22° C.
# [4] = system: Sprague-Dawley rats with closed head injury; conditions: for effect on the lowering of the blood pressure: rat, in vivo
# Text: as §1, §2, §3, §4, §5
# [5] = system: traumaticaly induced brain edema; conditions: prior treatment; cited from earlier work
# histamine H2-receptor = target: T2, histamine H2-receptor (Cavia porcellus, UniProt P47747); test: Radioligand binding, histamine H2-receptor, guinea pig striatum cells, [125I]APT; conditions: [125I]APT 0.1 nM, 150 min at 22° C., read-out: H2-antagonist activity (pIC50) (converted)
# T2 construct: using guinea pig striatum cells and [^125I]APT as the radioligand; from tissue; host or cells: guinea pig striatum
# T2 sequence (P47747 whole entry): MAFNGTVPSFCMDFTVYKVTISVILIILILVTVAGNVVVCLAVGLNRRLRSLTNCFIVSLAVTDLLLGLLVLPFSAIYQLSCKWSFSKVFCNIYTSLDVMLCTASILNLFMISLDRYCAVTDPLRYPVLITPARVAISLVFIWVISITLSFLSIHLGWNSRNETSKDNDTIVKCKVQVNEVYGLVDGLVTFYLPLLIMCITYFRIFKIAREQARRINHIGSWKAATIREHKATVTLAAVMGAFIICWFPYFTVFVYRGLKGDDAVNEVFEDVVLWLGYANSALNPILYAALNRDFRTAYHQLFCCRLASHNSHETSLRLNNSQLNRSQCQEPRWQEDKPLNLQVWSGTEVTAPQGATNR
# [6] = 0.5 mg/kg/min 10 min, then 0.1 mg/kg/min 50 min, start 20 min after severe CHI, n = 10
# [7] = continuous infusion of 0.1 mg/kg.min
# [8] = i.v. 0.1 mg/kg.min 30 min, chloralhydrate 400 mg/kg i.p. anesthesia, n=6
# [9] = i.v. 0.1 mg/kg.min 30 min, pentobarbital 60 mg/kg i.p. anesthesia, n=6
compound,measurement,setting,value
"Cc1nc2n(C)c3ccccc3n2c(=O)c1CCN1CCC(C2c3ccccc3CCn3c2nc2ccccc23)CC1Cc1ccccc1 (racemic) [Racemate (comp. 1 and comp. 2), pyrimido[1,2-a]benzimidazol-4(10H)-one, 3-[2-[4-(11 ,12-dihydro-6H-benzimidazo[2,1-b][3]benzazepin-6-yl)-2-(phenylmethyl)-1-piperidinyl]ethyl]-2,10-dimethyl (E)-2-butenedioate (2:3) hydrate (1:1)]","CPP (%), average change over treatment period, median (95% C.I.)",[1]; [6],7.5 (−2.4; 15.5) %
same,"ETCO2 (%), average change over treatment period, median (95% C.I.)",[1]; [6],2.4 (−7.8; 3.8) %
same,"ICP (%), average change over treatment period, % change of initial value, median (95% C.I.)",[1]; [6],−19.1 (−24.9; −10.8)* %
same,"MABP (%), average change over treatment period, median (95% C.I.)",[1]; [6],0.6 (−5.1; 8.5) %
same,"Resp. rate(%), average change over treatment period, median (95% C.I.)",[1]; [6],9.6 (3.0; 14.8) %
same,effect on saturation of brain haemoglobin with oxygen HbSat (NIRS),[2],not affected
same,effect on the redox state of CytOx (NIRS),[2],do not have an effect
same,effect on total brain haemoglobin concentration [HbTot] (NIRS),[2],do not have a significant effect
same,"effect on ICP, MABP and CPP in non-traumatised rats",non-traumatised rats,comparable with those obtained in the traumatized animals
"Cc1nc2n(C)c3ccccc3n2c(=O)c1CCN1CCC(C2c3ccccc3CCn3c2nc2ccccc23)CC1Cc1ccccc1 (single isomer, unassigned) [Compound 2, pyrimido[1,2-a]benzimidazol-4(10H)-one, 3-[2-[4-(11 ,12-dihydro-6H-benzimidazo[2,1-b][3]benzazepin-6-yl)-2-(phenylmethyl)-1-piperidinyl]ethyl]-2,10-dimethyl (E)-2-butenedioate (2:3) hydrate (1:1)]","CPP (%), average change over treatment period, median (95% C.I.)",[1]; [6],24.2 (0.9; 43.6)* %
same,"ETCO2 (%), average change over treatment period, median (95% C.I.)",[1]; [6],−4.4 (−8.9; 2.3)* %
same,"Heart rate(%), average change over treatment period, median (95% C.I.)",[1]; [6],−9.6 (−21.8; 0.7) %
same,"ICP (%), average change over treatment period, % change of initial value, median (95% C.I.)",[1]; [6],−15.3 (−20.0; −9.5)* %
same,"MABP (%), average change over treatment period, median (95% C.I.)",[1]; [6],18.8 (−2.0; 31.0)* %
same,"Resp. rate(%), average change over treatment period, median (95% C.I.)",[1]; [6],6.6 (−1.3; 14.6) %
same,increases in MABP observed,[1]; [7],≤ 20%
same,maximal reduction of ICP versus infusion preceded by loading dose,[1]; [7],comparable
same,time required to obtain maximal reduction of ICP (median),[1]; [7],30 min
same,median MABP increase at the end of the infusion,"[1]; continuous infusion of 0.1 mg/kg.min, n=6",9%
same,"ICP, % of initial value (median)",[2]; [8],75 % of initial value
same,"MABP, % of initial value (median)",[2]; [8],110 % of initial value
same,"ICP, % of initial value (median)",[2]; [9],64 % of initial value
same,"MABP, % of initial value at the end of the infusion (median)",[2]; [9],141 % of initial value
same,effect on saturation of brain haemoglobin with oxygen HbSat (NIRS),[2],small but statistically significant reduction
same,effect on the redox state of CytOx (NIRS),[2],do not have an effect
same,effect on total brain haemoglobin concentration [HbTot] (NIRS),[2],do not have a significant effect
same,IC50,[3],794 nM
same,"effect on ICP, MABP and CPP in non-traumatised rats",non-traumatised rats,comparable with those obtained in the traumatized animals
"Cc1nc2n(C)c3ccccc3n2c(=O)c1CCN1CCC(C2c3ccccc3CCn3c2nc2ccccc23)CC1Cc1ccccc1 (single isomer, unassigned) [Compound 47]",Decision (sequential statistical evaluation),[1],active
same,Delta %: average change of the relative ICP from baseline over the treatment period,[1],−12.0%
same,IC50,[3],398 nM
"CN(C)CCC(c1ccc(Cl)cc1)c1ccccn1 (stereo not drawn) [Chlorpheniramine, reference compound]",Effect on ICP,[1]; severe head injury,−
same,effect on the lowering of the blood pressure,[4],no or little effect
"CN/C(=N/CCSCc1nc[nH]c1C)NC#N [Cimetidine, cimetidine]",increased brain water content and elevated plasma and brain histamine levels,[5],prevented
Cc1nc2n(C)c3ccccc3n2c(=O)c1CCN1CCC(C2c3ccccc3CCn3c2nc2ccccc23)CC1Cc1ccccc1 (stereo not drawn) [Compound 30],Decision (sequential statistical evaluation),[1],active
same,Delta %: average change of the relative ICP from baseline over the treatment period,[1],−9.3%
same,IC50,[3],794 nM
CCOC(=O)Cn1c2ccccc2n2c(=O)c(CCN3CCC(C4c5ccccc5CCn5c4nc4ccccc45)CC3Cc3ccccc3)c(C)nc12 (stereo not drawn) [Compound 32],Decision (sequential statistical evaluation),[1],active
same,Delta %: average change of the relative ICP from baseline over the treatment period,[1],−13.9%
same,IC50,[3],398 nM
"CN(C)CCOC(c1ccccc1)c1ccccc1 [Diphenhydramine, diphenhydramine, reference compound]",reduction in ICP,"[1]; 1 mg/kg/min for 10 min, severe head injury, three rats",34%
same,effect on the lowering of the blood pressure,[4],no or little effect
OCCOCCN1CCN(C(c2ccccc2)c2ccc(Cl)cc2)CC1 (stereo not drawn) [Hydroxyzine],Effect on ICP,"[4]; iv, 0.5 mg/kg, 0.25 h",−
"CC(CN1c2ccccc2Sc2ccccc21)N(C)C (stereo not drawn) [Promethazine, reference compound]",Effect on ICP,[1]; severe head injury,−
same,effect on the lowering of the blood pressure,[4],no or little effect
COc1ccc(CN(CCN(C)C)c2ccccn2)cc1 [Pyrilamine],increased brain water content and elevated plasma and brain histamine levels,[5],failed to reduce the increased brain water content
same,effect on the lowering of the blood pressure,[4],no or little effect
"CNC(=C[N+](=O)[O-])NCCSCc1ccc(CN(C)C)o1 [Ranitidine, ranitidine, reference compound]",IC50,histamine H2-receptor,3160 nM
"c1cc(CN2CCCCC2)cc(OCCCNc2nc3ccccc3s2)c1 [Zolantidine, reference compound]",Effect on ICP,[1]; severe head injury,−
same,effect on the lowering of the blood pressure,[4],no or little effect
CN(C)CCCSC(=N)N [dimaprit],"effects of H2-agonists (ICP, blood pressure)",non-traumatised rats,No effects were observed
same,"effects of H2-agonists on blood pressure and ICP, high dose",non-traumatised rats,"blood pressure and ICP were observed to drop, but recovered after the treatment"
Cc1nc[nH]c1CSCCN=C(N)NCCCc1cnc[nH]1 [impromidine],"effects of H2-agonists (ICP, blood pressure)",non-traumatised rats,No effects were observed
same,"effects of H2-agonists on blood pressure and ICP, high dose",non-traumatised rats,"blood pressure and ICP were observed to drop, but recovered after the treatment"
